We go through ten compounds from ChEMBL document CHEMBL1201862, “PubChem BioAssay data set” (2004).

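Method: 48-hour compound exposure of cells in 96-well plates, five concentrations, linear interpolation of endpoints. GI50 marks 50% less growth.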 Active and inactive are the calls of the source. Cut-off read from the data, not from the text of the source: active = GI50 up to about 1.1 µM and inactive = higher.

Some test systems named below: UO-31; NCI-H460; EKVX; COLO 205; NCI-H522; SNB-19; MDA-MB-435; SF-268; RXF 393; SR; MDA-MB-231; SK-MEL-28; SF-539; CAKI-1; HOP-62; OVCAR-4; OVCAR-8; SN12C; MCF7; HCT-116.
What all share (assay): DTP human tumour cell line panel, 48 h

In the case of `COC(=O)/C=C/CC(=O)NS(C)(=O)=O`, the GI50 in the experiment on UO-31, in the experiment with NCI-H460, in the experiment on EKVX, with COLO 205, in the experiment on NCI-H522 and in the experiment with SNB-19 was > 10 µM (inactive) each time. In addition, the GI50 in the experiment with MDA-MB-435, with SF-268, in the experiment on RXF 393, with SR, with MDA-MB-231 and in the experiment with SK-MEL-28 was > 10 µM (inactive) each time. The GI50 in the experiment on SF-539, with CAKI-1, in the experiment on HOP-62, with OVCAR-4, with OVCAR-8 and with SN12C was > 10 µM (inactive) each time. For the same compound, the GI50 in the experiment on MCF7 and with HCT-116 was > 10 µM (inactive) throughout.

On to `O=c1cc(-c2ccccc2)nc(-n2[nH]c3c(c2=O)CCCC3)[nH]1`, for which the GI50 was 7.29 µM (inactive) with UO-31; 1.08 µM (active) in the experiment with NCI-H460; 4.94 µM (inactive) with EKVX; 3.82 µM (inactive) in the experiment on COLO 205; 12.1 µM (inactive) with NCI-H522; 11 µM (inactive) with SNB-19. Also, the GI50 with MDA-MB-435 was 4.59 µM (inactive); in the experiment on SF-268, 2.7 µM (inactive); with RXF 393 it was 0.656 µM (active); in the experiment with SR, 1.03 µM (active); in the experiment on MDA-MB-231, 2.92 µM (inactive); in the experiment on SK-MEL-28, 4.29 µM (inactive). In addition, the GI50 with SF-539 is 4.98 µM (inactive); in the experiment on CAKI-1, 7.18 µM (inactive); with OVCAR-4, 1.85 µM (inactive); in the experiment on SN12C, 10.8 µM (inactive); in the experiment on MCF7, 3.37 µM (inactive); in the experiment on HCT-116, 2.7 µM (inactive).

As for `CC1OC(OC2C(O[C@H]3CC[C@@]4(C)C(=CC[C@H]5[C@@H]6C[C@@H]7O[C@]8(CC[C@H](C)CN8)[C@@H](C)[C@@H]7[C@@]6(C)CC[C@@H]54)C3)OC(CO)C(O)C2OC2OC(CO)C(O)C(O)C2O)C(O)C(O)C1O` (stereo partly drawn), the GI50 in the experiment with UO-31 is 19.1 µM (inactive); with NCI-H460 it was 17.8 µM (inactive); with EKVX, 16.5 µM (inactive); in the experiment on COLO 205, 17.9 µM (inactive); with NCI-H522 it was 12.8 µM (inactive); in the experiment with SNB-19 it was 20.7 µM (inactive). Besides, the GI50 in the experiment with MDA-MB-435 is 23.5 µM (inactive); in the experiment with SF-268 it was 16.6 µM (inactive); in the experiment with RXF 393, 15.8 µM (inactive); with SR, 29 µM (inactive); in the experiment on MDA-MB-231, 21.4 µM (inactive); in the experiment with SK-MEL-28 it was 19.1 µM (inactive). The GI50 in the experiment with SF-539 is 16.7 µM (inactive); in the experiment with CAKI-1 it was 19.2 µM (inactive); in the experiment with OVCAR-4, 19.8 µM (inactive); with OVCAR-8 it was 15.5 µM (inactive); in the experiment on SN12C it was 20.8 µM (inactive); in the experiment with MCF7, 16.9 µM (inactive). Besides, the GI50 in the experiment on HCT-116 was 20.1 µM (inactive).

`Nc1nccc2c1ncn2C1C=C(CO)C(O)C1O` (stereo not drawn): the GI50 in the experiment on UO-31 was 3.39 µM (inactive); in the experiment on NCI-H460, 1.41 µM (inactive); with EKVX, > 94.6 µM (inactive); in the experiment on COLO 205, 19.7 µM (inactive); in the experiment with NCI-H522, > 100 µM (inactive); with SNB-19, 62.7 µM (inactive). The GI50 with MDA-MB-435 is > 100 µM (inactive); with SF-268, > 96.4 µM (inactive); in the experiment on RXF 393, 87.9 µM (inactive); in the experiment with SR it was 3.29 µM (inactive); in the experiment on MDA-MB-231 it was > 100 µM (inactive); in the experiment on SK-MEL-28, 2.73 µM (inactive). Moreover, the GI50 in the experiment with SF-539 is 11.8 µM (inactive); in the experiment with CAKI-1, 21.1 µM (inactive); in the experiment on HOP-62, 30.3 µM (inactive); in the experiment with OVCAR-4, 59.4 µM (inactive); in the experiment with OVCAR-8 it was 41.8 µM (inactive); with SN12C, 74.3 µM (inactive). Also, the GI50 is 4.29 µM (inactive) in the experiment on MCF7 and 1.28 µM (inactive) in the experiment on HCT-116.

In the case of `Clc1ccc2oc(CCc3ccccc3)nc2c1`, the GI50 in the experiment with UO-31 was 62.7 µM (inactive); in the experiment on NCI-H460, 59.2 µM (inactive); with EKVX it was 32.5 µM (inactive); in the experiment on COLO 205, 41.7 µM (inactive); in the experiment with NCI-H522 it was 35.6 µM (inactive); in the experiment on SNB-19, 91.6 µM (inactive). Besides, the GI50 is 44.2 µM (inactive) in the experiment with MDA-MB-435; 87.9 µM (inactive) with SF-268; 24.9 µM (inactive) in the experiment with RXF 393; 57.3 µM (inactive) in the experiment on SR; > 100 µM (inactive) in the experiment with MDA-MB-231; 72.3 µM (inactive) in the experiment with SK-MEL-28. Further, the GI50 is > 100 µM (inactive) with SF-539; 38.2 µM (inactive) in the experiment on CAKI-1; > 100 µM (inactive) in the experiment on HOP-62; 52 µM (inactive) in the experiment on OVCAR-4; 78.9 µM (inactive) in the experiment on OVCAR-8; 66.1 µM (inactive) in the experiment on SN12C. For the same compound, the GI50 in the experiment with MCF7 was 38 µM (inactive); in the experiment with HCT-116, 36.2 µM (inactive).

Turning to `CCN(CC)C(=S)SC1C(=O)NC(=O)NC1=O`, the GI50 is > 100 µM (inactive) in the experiment with UO-31; 0.017 µM (active) in the experiment on NCI-H460; > 100 µM (inactive) with EKVX; > 100 µM (inactive) with COLO 205; > 100 µM (inactive) in the experiment on NCI-H522; > 100 µM (inactive) in the experiment on MDA-MB-435. For the same compound, the GI50 in the experiment on SF-268, with RXF 393, in the experiment with SR, in the experiment with MDA-MB-231, with SK-MEL-28 and in the experiment on SF-539 was > 100 µM (inactive) in each case. The GI50 in the experiment with CAKI-1, with HOP-62, in the experiment with OVCAR-4, in the experiment on OVCAR-8, with SN12C and with MCF7 was > 100 µM (inactive) throughout. Besides, the GI50 in the experiment with HCT-116 was > 100 µM (inactive).

In the case of `CCCCc1c2c(nc3c1CCCC3O)CCCC2` (stereo not drawn), the GI50 in the experiment on UO-31 is > 100 µM (inactive); with NCI-H460, > 100 µM (inactive); in the experiment with EKVX, 73.6 µM (inactive); in the experiment with COLO 205, > 100 µM (inactive); in the experiment with NCI-H522, > 100 µM (inactive); with SNB-19, > 100 µM (inactive). Further, the GI50 in the experiment on MDA-MB-435 is > 100 µM (inactive); with SF-268, > 100 µM (inactive); in the experiment with RXF 393 it was > 100 µM (inactive); in the experiment on SR it was 5.11 µM (inactive); with MDA-MB-231 it was > 100 µM (inactive); in the experiment on SF-539, > 100 µM (inactive). Besides, the GI50 in the experiment with CAKI-1, in the experiment with HOP-62, in the experiment on OVCAR-4, in the experiment on OVCAR-8, with SN12C and in the experiment on MCF7 was > 100 µM (inactive) each time. Also, the GI50 in the experiment with HCT-116 was > 100 µM (inactive).

Take `CC(C)(C)c1cc2c(O)c(c1)Cc1cc(C(C)(C)C)cc(c1O)Cc1cc(C(C)(C)C)cc(c1O)Cc1cc(C(C)(C)C)cc(c1O)Cc1cc(C(C)(C)C)cc(c1O)Cc1cc(C(C)(C)C)cc(c1O)Cc1cc(C(C)(C)C)cc(c1O)Cc1cc(C(C)(C)C)cc(c1O)C2`: the GI50 with UO-31, in the experiment with NCI-H460, with EKVX, in the experiment with COLO 205, in the experiment on NCI-H522 and in the experiment on SNB-19 was > 50 µM (inactive) each time. For the same compound, the GI50 in the experiment on MDA-MB-435, in the experiment on SF-268, in the experiment with RXF 393, in the experiment on SR, in the experiment on MDA-MB-231 and in the experiment on SK-MEL-28 was > 50 µM (inactive) throughout. For the same compound, the GI50 with SF-539, in the experiment with CAKI-1, with HOP-62, in the experiment on OVCAR-4, in the experiment on OVCAR-8 and in the experiment with SN12C was > 50 µM (inactive) each time. Moreover, the GI50 in the experiment with MCF7 and with HCT-116 was > 50 µM (inactive) in each case.

Consider `CCCCCC(/C=N/NC(N)=S)C(O)(C(F)(F)F)C(F)(F)F` (stereo not drawn), for which the GI50 in the experiment on NCI-H460, in the experiment on EKVX, in the experiment with COLO 205, in the experiment on NCI-H522, with SNB-19 and in the experiment on MDA-MB-435 was > 10 µM (inactive) in each case. Besides, the GI50 in the experiment with SF-268, with RXF 393, in the experiment on SR, in the experiment on MDA-MB-231, in the experiment on SK-MEL-28 and in the experiment with SF-539 was > 10 µM (inactive) throughout. The GI50 with CAKI-1, in the experiment with HOP-62, with OVCAR-4, in the experiment on OVCAR-8, in the experiment on SN12C and in the experiment with MCF7 was > 10 µM (inactive) each time. Besides, the GI50 in the experiment with HCT-116 is > 10 µM (inactive).

In the case of `O=c1[nH]c(=O)n(C2CC(O)C(CO)O2)c2nc3ccc4cc5ccccc5cc4c3nc12` (stereo not drawn), the GI50 with UO-31, in the experiment with EKVX, with COLO 205, with NCI-H522, in the experiment on SNB-19 and with MDA-MB-435 was > 100 µM (inactive) each time. The GI50 with SF-268 is > 100 µM (inactive); with RXF 393 it was > 100 µM (inactive); in the experiment on SR, 69.5 µM (inactive); in the experiment with MDA-MB-231, > 100 µM (inactive); in the experiment with SK-MEL-28, > 100 µM (inactive); with SF-539, > 100 µM (inactive). Also, the GI50 was > 100 µM (inactive) in the experiment on CAKI-1; > 100 µM (inactive) in the experiment with HOP-62; 80.7 µM (inactive) in the experiment with OVCAR-4; > 100 µM (inactive) in the experiment with OVCAR-8; > 100 µM (inactive) in the experiment on SN12C; > 100 µM (inactive) with MCF7. Also, the GI50 in the experiment with HCT-116 is > 100 µM (inactive).
